Square brackets hold non-standard residues; d marks the D form. Ends that are not written are not given here. Lys(Me3) = C[N+](C)(C)CCCC[C@H](N)C(=O)O
What was measured:
KDM4B (KDM4B1–359) = test: MALDI-TOF MS demethylation activity assay, KDM4B; format: biochemical, human; design: key: 🟢: Indicates that clear demethylation activity was observed; 🟡: Indicates that low level demethylation activity was observed (<10% conversion after 1 h); 🔴: Indicates no activity under the stated conditions (1 μM KDM, 10 μM peptide); 🟡*: *Indicates demethylation activity was only observed with 5 μM KDM; settings: peptide as substrate, 1 μM KDM, 10 μM peptide, 50 mM HEPES pH 7.5, Fe(II) 10 μM, ascorbate 100 μM, 2OG 200 μM, 1 h at 37 °C
Experimental: (§1) Recombinant proteins (1 μM) were incubated with peptides (10 μM, sequences are given in Table S1) in 50 mM HEPES, pH 7.5 with addition of Fe(II) ammonium sulfate (10 μM), sodium ascorbate (100 μM) and 2‐oxoglutaric acid (200 μM). Reactions with KDM3A and KDM7A also contained 1 mM tris(2‐carboxyethyl)phosphine hydrochloride. No enzyme reactions were included as negative controls. Reactions were incubated for 1 h at 37 °C before being quenched with 1 : 1 (v/v) methanol. Analysis was carried out by MALDI‐TOF MS (Bruker, Billerica, MA, USA), with demethylation observed as mass shifts of 14 Da.
Given the activity observed with KDM4E and KDM7A, we decided to investigate the intra‐subfamily conservation of this demethylation activity. The demethylation activity of the other subfamily members (KDM4A‐D and KDM7B) was therefore screened. […] Note that as with H3K9, demethylation of the monomethylated H1.4K26 peptide was only observed with KDM4E, under the stated conditions 24.

KDM4E (KDM4E1–337) = test: MALDI-TOF MS demethylation activity assay, KDM4E; format: biochemical, human; design: key: 🟢: Indicates that clear demethylation activity was observed; 🟡: Indicates that low level demethylation activity was observed (<10% conversion after 1 h); 🔴: Indicates no activity under the stated conditions (1 μM KDM, 10 μM peptide); 🟡*: *Indicates demethylation activity was only observed with 5 μM KDM; settings: peptide as substrate, 1 μM KDM, 10 μM peptide, 50 mM HEPES pH 7.5, Fe(II) 10 μM, ascorbate 100 μM, 2OG 200 μM, 1 h at 37 °C
Experimental: as §1
The propensity of human JmjC KDMs to catalyse demethylation at H1.4K26 was investigated using recombinant forms of the catalytic domains of representatives of each human JmjC KDM subfamily (KDM2‐7) and fragment peptides (Table S1) 37. Three peptides with identical sequences, corresponding to residues 18–32 of histone H1.4 (H2N‐[…]‐CONH2), but containing either a N ^ε‐tri‐, di‐ or monomethyllysine at K26 were synthesised (Fig. 1B and Table S1). Activity assays monitoring JmjC KDM‐catalysed demethylation of the peptides were then carried out; samples were prepared containing each peptide, 2‐oxoglutarate (2OG), ferrous iron, ascorbate and individual representatives from each JmjC KDM subfamily (KDM2A 38, KDM3A 21, KDM4E 22, KDM5C 39, 40, KDM6B 41, KDM7A 42).

Substance: TPVKKKAR[Lys(Me3)]SAGAAK [H1.4(18–32)K26me3, peptide of residues 18–32 of histone H1.4 with N ε-trimethyllysine at K26]
- demethylation activity on methylated H1.4 peptide (KDM4B (KDM4B1–359)): 🟢
- demethylation activity on methylated H1.4 peptide (KDM4E (KDM4E1–337)): 🟢
